Measured values as given in BindingDB's records for patent US8680132 (University of Michigan, 2014).

Molecular target: E3 ubiquitin-protein ligase Mdm2 (Homo sapiens, UniProt Q00987)
Assay: Fluorescence-polarization Binding Assay
Settings: pH 7.5

Chain of E3 ubiquitin-protein ligase Mdm2 (Q00987 whole entry): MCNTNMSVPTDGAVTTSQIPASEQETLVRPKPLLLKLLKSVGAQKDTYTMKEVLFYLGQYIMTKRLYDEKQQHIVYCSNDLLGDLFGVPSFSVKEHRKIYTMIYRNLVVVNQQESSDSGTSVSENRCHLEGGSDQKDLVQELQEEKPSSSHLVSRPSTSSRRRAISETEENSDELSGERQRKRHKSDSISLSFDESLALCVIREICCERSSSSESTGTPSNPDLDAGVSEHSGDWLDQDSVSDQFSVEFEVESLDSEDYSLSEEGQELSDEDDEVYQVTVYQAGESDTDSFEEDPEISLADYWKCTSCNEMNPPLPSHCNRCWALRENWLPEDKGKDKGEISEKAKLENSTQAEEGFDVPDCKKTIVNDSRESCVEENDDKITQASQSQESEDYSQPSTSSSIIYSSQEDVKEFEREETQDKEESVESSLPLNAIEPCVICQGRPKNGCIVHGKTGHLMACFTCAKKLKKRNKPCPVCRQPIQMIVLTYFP

O=C(NCC[C@H](O)CO)[C@@H]1N[C@H](CC2CCCCC2)[C@]2(C(=O)Nc3cc(Cl)c(F)cc32)[C@H]1c1cccc(Cl)c1
IC50: < 1 µM
